According to publication PMC8079033, “Design, synthesis, anticancer evaluation, and molecular modelling studies of novel tolmetin derivatives as potential VEGFR-2 inhibitors and apoptosis inducers” (Journal of Enzyme Inhibition and Medicinal Chemistry, 2021):

Key:
786-0 = test: NCI 60-cell line one-dose antiproliferative screen (SRB); type: cell-based; settings: Homo sapiens, read-out: growth inhibition % (GI%)
Procedure: (§1) Anticancer activity screening of the newly synthesised compounds was measured in vitro utilising 60 different human tumour cell lines provided by US National Cancer Institute according to previously reported standard procedure[41–43] as follows: Cells are inoculated into 96-well microtiter plates in 100 ml. After cell inoculation, the microtiter plates are incubated at 37 °C, 5% CO2, 95% air, and 100% relative humidity for 24 h prior to addition of experimental compounds. After 24 h, two plates of each cell line are fixed in situ with TCA, to represent a measurement of the cell population for each cell line at the time of compound addition (Tz). Experimental compounds are solubilised in dimethyl sulfoxide at 400-fold the desired final maximum test concentration and stored frozen prior to use. At the time of compound addition, an aliquot of frozen concentrate is thawed and diluted to twice the desired final maximum test concentration with a complete medium containing […] gentamicin. Aliquots of […] of the compounds dilutions are added to the appropriate microtiter wells already containing 100 ml of medium, resulting in the required final compound concentration. Following compound addition, the plates are incubated for an additional 48 h at 37 °C, 5% CO2, 95% air, and 100% relative humidity. For adherent cells, the assay is terminated by the addition of cold trichloroacetic acid (TCA). Cells are fixed in situ by the gentle addition of 50 ml of cold 50% (w/v) TCA (final concentration, 10% TCA) and incubated for […] at 4 °C. The supernatant is discarded, and the plates are washed five times with tap water and air-dried. Sulforhodamine B (SRB) solution (100 ml) at 0.4% (w/v) in 1% acetic acid is added to each well, and plates are incubated for 10 min at room temperature. After staining, the unbound dye is removed by washing five times with 1% acetic acid and the plates are air-dried. The bound stain is subsequently solubilised with a 10 mM trizma base, and the absorbance is read on an automated plate reader at a wavelength of 515 nm. For suspension cells, the methodology is the same except that the assay is terminated by fixing settled cells at the bottom of the wells by gently adding 50 ml of 80% TCA (final concentration, 16% TCA). Using the absorbance measurements [time zero, (Tz), control growth, (C), and test growth in the presence of compound (Ti)], the percentage growth is calculated for each compound. The One-dose data are reported as a mean graph of the percent growth of treated cells. The reported number is growth relative to the no-compound control, and relative to the time zero number of cells. This allows the detection of both growth inhibition and lethality.
(§2) Fifteen newly synthesised compounds were tested for their in vitro antiproliferative activity by the National Cancer Institute (NCI), Maryland, USA[50], under the Developmental Therapeutic Program (DTP)[41]^,[43]^,[51]^,[52]. The tested compounds were evaluated at a concentration of 10 µM on a panel of 60 tumour cell lines representing leukaemia and non-small cell lung, colon, CNS, melanoma, ovarian, renal, prostate, and breast cancers. The antiproliferative activity was presented by the NCI as percent growth of the treated cells and is presented in Table 1 as growth inhibition percentage (GI%) achieved by the tested compounds.

A498 = test: as above; type: cell-based; settings: Homo sapiens, read-out: growth inhibition % (GI%)
Procedure: as §1, §2

A549/ATCC = test: as above; type: cell-based; settings: Homo sapiens, read-out: growth inhibition % (GI%)
Procedure: as §1, §2

ACHN = test: as above; type: cell-based; settings: Homo sapiens, read-out: growth inhibition % (GI%)
Procedure: as §1, §2

CAKI-1 = test: as above; type: cell-based; settings: Homo sapiens, read-out: growth inhibition % (GI%)
Procedure: as §1, §2

EKVX = test: as above; type: cell-based; settings: Homo sapiens, read-out: growth inhibition % (GI%)
Procedure: as §1, §2

HCT-116 = test: as above; type: cell-based; settings: Homo sapiens, read-out: growth inhibition % (GI%)
Procedure: as §1, §2

HCT-15 = test: as above; type: cell-based; settings: Homo sapiens, read-out: growth inhibition % (GI%)
Procedure: as §1, §2

HL-60 (TB) = test: as above; type: cell-based; settings: Homo sapiens, read-out: growth inhibition % (GI%)
Procedure: as §1, §2

HOP-62 = test: as above; type: cell-based; settings: Homo sapiens, read-out: growth inhibition % (GI%)
Procedure: as §1, §2

HOP-92 = test: as above; type: cell-based; settings: Homo sapiens, read-out: growth inhibition % (GI%)
Procedure: as §1, §2

HS 578 T = test: as above; type: cell-based; settings: Homo sapiens, read-out: growth inhibition % (GI%)
Procedure: as §1, §2

IGROV1 = test: as above; type: cell-based; settings: Homo sapiens, IGROV-1, read-out: growth inhibition % (GI%)
Procedure: as §1, §2

K-562 = test: as above; type: cell-based; settings: Homo sapiens, K562, read-out: growth inhibition % (GI%)
Procedure: as §1, §2

KM12 = test: as above; type: cell-based; settings: Homo sapiens, read-out: growth inhibition % (GI%)
Procedure: as §1, §2

LOX IMVI = test: as above; type: cell-based; settings: Homo sapiens, read-out: growth inhibition % (GI%)
Procedure: as §1, §2

MALME-3M = test: as above; type: cell-based; settings: Homo sapiens, read-out: growth inhibition % (GI%)
Procedure: as §1, §2

MCF7 = test: as above; type: cell-based; settings: Homo sapiens, read-out: growth inhibition % (GI%)
Procedure: as §1, §2

MDA-MB-231/ATCC = test: as above; type: cell-based; settings: Homo sapiens, read-out: growth inhibition % (GI%)
Procedure: as §1, §2

MOLT-4 = test: as above; type: cell-based; settings: Homo sapiens, read-out: growth inhibition % (GI%)
Procedure: as §1, §2

NCI-H226 = test: as above; type: cell-based; settings: Homo sapiens, read-out: growth inhibition % (GI%)
Procedure: as §1, §2

NCI-H23 = test: as above; type: cell-based; settings: Homo sapiens, read-out: growth inhibition % (GI%)
Procedure: as §1, §2

NCI-H460 = test: as above; type: cell-based; settings: Homo sapiens, read-out: growth inhibition % (GI%)
Procedure: as §1, §2

NCI-H522 = test: as above; type: cell-based; settings: Homo sapiens, read-out: growth inhibition % (GI%)
Procedure: as §1, §2

NCI/ADR-RES = test: as above; type: cell-based; settings: Homo sapiens, read-out: growth inhibition % (GI%)
Procedure: as §1, §2

OVCAR-4 = test: as above; type: cell-based; settings: Homo sapiens, read-out: growth inhibition % (GI%)
Procedure: as §1, §2

OVCAR-5 = test: as above; type: cell-based; settings: Homo sapiens, read-out: growth inhibition % (GI%)
Procedure: as §1, §2

OVCAR-8 = test: as above; type: cell-based; settings: Homo sapiens, read-out: growth inhibition % (GI%)
Procedure: as §1, §2

PC-3 = test: as above; type: cell-based; settings: Homo sapiens, read-out: growth inhibition % (GI%)
Procedure: as §1, §2

RPMI-8226 = test: as above; type: cell-based; settings: Homo sapiens, read-out: growth inhibition % (GI%)
Procedure: as §1, §2

SF-268 = test: as above; type: cell-based; settings: Homo sapiens, read-out: growth inhibition % (GI%)
Procedure: as §1, §2

SF-295 = test: as above; type: cell-based; settings: Homo sapiens, read-out: growth inhibition % (GI%)
Procedure: as §1, §2

SF-539 = test: as above; type: cell-based; settings: Homo sapiens, read-out: growth inhibition % (GI%)
Procedure: as §1, §2

SK-MEL-5 = test: as above; type: cell-based; settings: Homo sapiens, read-out: growth inhibition % (GI%)
Procedure: as §1, §2

SK-OV-3 = test: as above; type: cell-based; settings: Homo sapiens, read-out: growth inhibition % (GI%)
Procedure: as §1, §2

SN 12 C = test: as above; type: cell-based; settings: Homo sapiens, SN12C, read-out: growth inhibition % (GI%)
Procedure: as §1, §2

SNB-19 = test: as above; type: cell-based; settings: Homo sapiens, read-out: growth inhibition % (GI%)
Procedure: as §1, §2

SNB-75 = test: as above; type: cell-based; settings: Homo sapiens, read-out: growth inhibition % (GI%)
Procedure: as §1, §2

SR = test: as above; type: cell-based; settings: Homo sapiens, read-out: growth inhibition % (GI%)
Procedure: as §1, §2

SW-620 = test: as above; type: cell-based; settings: Homo sapiens, read-out: growth inhibition % (GI%)
Procedure: as §1, §2

T-47D = test: as above; type: cell-based; settings: Homo sapiens, T47D, read-out: growth inhibition % (GI%)
Procedure: as §1, §2

U251 = test: as above; type: cell-based; settings: Homo sapiens, U-251, read-out: growth inhibition % (GI%)
Procedure: as §1, §2

UACC-257 = test: as above; type: cell-based; settings: Homo sapiens, read-out: growth inhibition % (GI%)
Procedure: as §1, §2

UACC-62 = test: as above; type: cell-based; settings: Homo sapiens, read-out: growth inhibition % (GI%)
Procedure: as §1, §2

UO-31 = test: as above; type: cell-based; settings: Homo sapiens, read-out: growth inhibition % (GI%)
Procedure: as §1, §2

With `Cc1ccc(C(=O)c2ccc(CC(=O)NN=Cc3cc4ccccc4[nH]3)n2C)cc1` [Compound 5e, N′-((1H-Indol-2-yl)methylene)-2–(1-methyl-5–(4-methylbenzoyl)-1H-pyrrol-2-yl) acetohydrazide] the inhibition at 10 µM (786-0) was < 10%, the inhibition at 10 µM (A498) was 10.9% and the inhibition at 10 µM (A549/ATCC) was < 10%. The inhibition at 10 µM (ACHN) was < 10%, the inhibition at 10 µM (CAKI-1) was 15.8% and the inhibition at 10 µM (EKVX) was 25.7%. The inhibition at 10 µM (HCT-116) was < 10%, the inhibition at 10 µM (HCT-15) was 12.6% and the inhibition at 10 µM (HL-60 (TB)) was < 10%. For the same compound, the inhibition at 10 µM (HOP-62) was 24%, the inhibition at 10 µM (HOP-92) was 10.3% and the inhibition at 10 µM (HS 578 T) was < 10%. The inhibition at 10 µM (IGROV1) was 45.5%, the inhibition at 10 µM (K-562) was < 10% and the inhibition at 10 µM (KM12) was < 10%. For the same compound, the inhibition at 10 µM (LOX IMVI) was 10.7%, the inhibition at 10 µM (MALME-3M) was < 10% and the inhibition at 10 µM (MCF7) was 22.1%. The inhibition at 10 µM (MDA-MB-231/ATCC) was 20.5%, the inhibition at 10 µM (MOLT-4) was < 10% and the inhibition at 10 µM (NCI-H226) was 15.3%. The inhibition at 10 µM (NCI-H23) was 15.4%, the inhibition at 10 µM (NCI-H460) was < 10% and the inhibition at 10 µM (NCI-H522) was 18.9%. The inhibition at 10 µM (NCI/ADR-RES) was < 10%, the inhibition at 10 µM (OVCAR-4) was 19.3% and the inhibition at 10 µM (OVCAR-5) was < 10%. For the same compound, the inhibition at 10 µM (OVCAR-8) was < 10%, the inhibition at 10 µM (PC-3) was 10.9% and the inhibition at 10 µM (RPMI-8226) was < 10%. For the same compound, the inhibition at 10 µM (SF-268) was < 10%, the inhibition at 10 µM (SF-295) was < 10% and the inhibition at 10 µM (SF-539) was < 10%. For the same compound, the inhibition at 10 µM (SK-MEL-5) was < 10%, the inhibition at 10 µM (SK-OV-3) was 12.1% and the inhibition at 10 µM (SN 12 C) was 10.5%. The inhibition at 10 µM (SNB-19) was 17.3%, the inhibition at 10 µM (SNB-75) was 15.3% and the inhibition at 10 µM (SR) was < 10%. For the same compound, the inhibition at 10 µM (SW-620) was < 10%, the inhibition at 10 µM (T-47D) was 29.4% and the inhibition at 10 µM (U251) was < 10%. For the same compound, the inhibition at 10 µM (UACC-257) was < 10%, the inhibition at 10 µM (UACC-62) was 15.8% and the inhibition at 10 µM (UO-31) was 40.4%. For the same compound, the melting point was 198 to 200 °C.
